Target: T1, Dimer of Gag-Pol polyprotein [501-599] (Human immunodeficiency virus 1, UniProt P03367)
T1 construct: 501-599
Assay: Protease Inhibition Assay
Details: pH 4.7
Experimental: Inhibition constants were determined by a spectrophotometric assay with the chromogenic peptide substrate.

SMILES	Ki [nM]
CC(C)(C)OC(=O)N[C@@H](Cc1ccccc1)[C@@H](O)CN[C@@H](Cc1ccccc1)C(=O)N[C@@H](CCC(=O)O)C(=O)N[C@@H](Cc1ccccc1)C(N)=O	0.15
CC(C)(C)OC(=O)N[C@@H](Cc1ccccc1)[C@@H](O)CN[C@@H](Cc1ccccc1)C(=O)N[C@@H](CCC(N)=O)C(=O)N[C@@H](Cc1ccccc1)C(N)=O	33
